In PubChem BioAssay AID1549 (Sanford-Burnham Center for Chemical Genomics, 2009):
The source made the active and inactive calls. The rule behind the calls is not given here.

Biological target: Influenza A virus M2 proton channel (A/TW/4845/1999 H1N1)
Assay: NMR binding screen, influenza A virus M2 proton channel, Kd (AID 1549)
Conditions: M2 protein

Row | SMILES | Kd
1 | O=C(O)C(CO)c1ccccc1 (centres undefined) | > 4 mM (inactive)
2 | O=C(Nc1ccc2ccccc2c1)c1cnccn1 | > 4 mM (inactive)
3 | Cc1ccc(/C=N/NC(N)=O)o1 | > 4 mM (inactive)
4 | CC(=O)NC(C)(C)C1CC=C(C)/C(=N\O)C1 (centres undefined) | > 4 mM (inactive)
5 | OC1CNCc2cc3c(cc21)OCCO3 (centres undefined) | > 4 mM (inactive)
6 | CCOc1ccc2nc(NS(C)(=O)=O)sc2c1 | > 4 mM (inactive)
7 | Cc1nnc(Nc2ccc(S(N)(=O)=O)cc2)[nH]c1=O | > 4 mM (inactive)
8 | COc1ccc(Cl)cc1-c1nc(-c2ccncc2)no1 | > 4 mM (inactive)
9 | N/C(=N/O)C1COc2ccccc2O1 (centres undefined) | > 4 mM (inactive)
10 | O=C1OC(N2CCOCC2)c2ccccc21 (centres undefined) | > 4 mM (inactive)
11 | Nc1ccc(Oc2ccccc2)nc1 | > 4 mM (inactive)
12 | COc1ccc(/C=C/c2cc(O)cc(O)c2)cc1 | > 4 mM (inactive)
13 | COc1ccccc1NC(=O)NC(N)=O | > 4 mM (inactive)
14 | Cc1cc(N)no1 | > 4 mM (inactive)
15 | CCCn1cnn2c(=O)cc(C)nc12 | > 4 mM (inactive)
16 | NC(=O)C1CCN(C(=O)c2ccccc2)CC1 | > 4 mM (inactive)
17 | O=C(Nc1nccs1)c1ccc(=O)[nH]n1 | > 4 mM (inactive)
18 | O=C(Nc1ccc(O)cc1)N1CCOCC1 | > 4 mM (inactive)
19 | COC(=O)CC1SC(=O)NC1=O (centres undefined) | > 4 mM (inactive)
20 | COc1nc(C)ccc1-c1noc(-c2ccco2)n1 | > 4 mM (inactive)
21 | O=C(O)CCCN1CNC(=S)NC1 | > 4 mM (inactive)
22 | COC(=O)Cc1cc(=O)n(-c2nc3ccccc3s2)[nH]1 | > 4 mM (inactive)
23 | CS(=O)(=O)Cc1ccccc1 | > 4 mM (inactive)

Row | SMILES | Kd
24 | CCN1CC2(C)CC[C@H](OC)[C@]34C2[C@H](O)C2(OCO[C@@]25C[C@H](OC)[C@H]2C[C@]3(O)C5[C@H]2O)C14 | > 4 mM (inactive)
25 | Cc1noc(C)c1C(=O)Nc1ccccn1 | > 4 mM (inactive)
26 | c1coc(CNc2ncnc3nc[nH]c23)c1 | > 4 mM (inactive)
27 | O=C(CSc1ncnc2ccccc12)NCCCO | > 4 mM (inactive)
28 | O=C(c1ccc2c(c1)OCO2)N1CCC2(CC1)OCCO2 | > 4 mM (inactive)
29 | O=C1NC(=O)C(C(C[N+](=O)[O-])c2ccc(O)cc2)C(=O)N1 (centres undefined) | > 4 mM (inactive)
30 | COc1cc2cc3c4cc(OC)c(OC)cc4cc[n+]3c(C)c2cc1OC | > 4 mM (inactive)
31 | CC1=CCc2c(cc3oc(C)cc(=O)c3c2O)OC1 | > 4 mM (inactive)
32 | CCCc1cc(=O)[nH]c2nnc(SCC(C)=O)n12 | > 4 mM (inactive)
33 | O=C1c2ccncc2C(=O)N1CO | > 4 mM (inactive)
34 | CC(C)C(=O)NC(=S)N1CCOCC1 | > 4 mM (inactive)
35 | c1coc(CNc2nc(-c3ccncc3)cs2)c1 | > 4 mM (inactive)
36 | O=C(O)c1cc(O)c2c(c1)C(=O)c1cc(O)cc(O)c1C2=O | > 4 mM (inactive)
37 | CC(=O)Nc1ccc(C(=O)NC2CCSC2=O)cc1 (centres undefined) | > 4 mM (inactive)
38 | COc1cc(OC)c2c(=O)c(OC)c(-c3ccc(OC)c(OC)c3)oc2c1 | > 4 mM (inactive)
39 | CN1CCN(c2ncnc3nc[nH]c23)CC1 | > 4 mM (inactive)
40 | CC(=O)Nc1ccc(N2CCOCC2)cc1 | > 4 mM (inactive)
41 | O=C(O)Cn1c(C(F)(F)F)nc2ccccc21 | > 4 mM (inactive)
42 | Cc1ccc(C)n1-c1ccc(C(=O)N2CCOCC2)cc1 | > 4 mM (inactive)
43 | CC(=O)Nc1nc(-c2cccs2)cs1 | > 4 mM (inactive)
44 | Cc1ccc(-c2nnc3sc(-c4ccncc4)nn23)cc1 | > 4 mM (inactive)
45 | C[C@@H]1CC[C@@]2(NC1)O[C@H]1C[C@H]3C4CC=C5C[C@@H](O)CC[C@]5(C)C4CC[C@]3(C)C1[C@@H]2C (some centres undefined) | > 4 mM (inactive)
46 | CSc1nc(O)cc(=O)[nH]1 | > 4 mM (inactive)

Row | SMILES | Kd
47 | c1cncc(Nc2nc(-c3ccncc3)cs2)c1 | > 4 mM (inactive)
48 | CC(C)(O)P(C)(=O)c1ccccc1 (centres undefined) | > 4 mM (inactive)
49 | CC1(C)Oc2ccc(N)cc2O1 | > 4 mM (inactive)
50 | COc1ccc2[nH]c(O)c(NC(C)=O)c2c1 | > 4 mM (inactive)
51 | O=C(O)C1=C[C@@H](O)[C@@H](O)[C@H](O)C1 | > 4 mM (inactive)
52 | CC(C)c1ccccc1NC(=O)c1cnccn1 | > 4 mM (inactive)
53 | NC(C(=O)O)C(O)c1ccccc1 (centres undefined) | > 4 mM (inactive)
54 | COc1cc(O)c(C)c(O)c1 | > 4 mM (inactive)
55 | CCN1C[C@@]2(COC)C3[C@@H](OC)[C@H]4[C@@H]1[C@]3(C(OC)C[C@H]2O)C1C[C@@]2(O)[C@H](OC(=O)c3ccccc3)C1[C@]4(OC(C)=O)[C@@H](O)[C@@H]2OC (some centres undefined) | > 4 mM (inactive)
56 | Nc1cc(F)nc(F)n1 | > 4 mM (inactive)
57 | Cc1ccc(NC(=O)N2CCC(C(N)=O)CC2)cc1 | > 4 mM (inactive)
58 | CC(=O)Oc1ccc2c(c1C(C)C)CCC1C(C)(C)CCC[C@]21C (some centres undefined) | > 4 mM (inactive)
59 | O=C(Oc1ccc(-c2nnco2)cc1)N1CCOCC1 | > 4 mM (inactive)
60 | COc1ccc(Cc2nccc3cc(OC)c(OC)cc23)cc1OC | > 4 mM (inactive)
61 | CC1(C)C(=O)C=C[C@@]2(C)C1C[C@@H](O)[C@]1(C)C2CC[C@@]2(C)[C@H](c3ccoc3)OC(=O)[C@H]3O[C@]321 (some centres undefined) | > 4 mM (inactive)
62 | Cc1nnc(NCCO)[nH]c1=O | > 4 mM (inactive)
63 | Cn1c(=O)c2c(ncn2CCN)n(C)c1=O | > 4 mM (inactive)
64 | CC(C)=CC(=O)Nc1ccccc1Br | > 4 mM (inactive)
65 | O=C(O)c1cnc2n(c1=O)CCS2 | > 4 mM (inactive)
66 | O=C(O)c1ccc(-n2cccn2)cc1 | > 4 mM (inactive)
67 | COC(=O)Nc1nnc(-c2ccncc2)s1 | > 4 mM (inactive)
68 | CCc1c(C)[nH]c(=S)c(C(N)=O)c1C | > 4 mM (inactive)
69 | CC(=O)Nc1cccc(N(C)S(C)(=O)=O)c1 | > 4 mM (inactive)

Row | SMILES | Kd
70 | CC(=O)O[C@H]1C[C@@H](OC(C)=O)C(C)(C)C2C[C@@H](O)[C@]3(C)C(CC[C@@]4(C)[C@H](c5ccoc5)OC(=O)[C@H]5O[C@]543)[C@]21C (some centres undefined) | > 4 mM (inactive)
71 | Nc1ccc(O)cn1 | > 4 mM (inactive)
72 | C[C@@H]1OC(O[C@H]2C(O[C@H]3CC[C@@]4(C)C(CC[C@]5(C)C4CC=C4C6CC(C)(C)CC[C@]6(C(=O)O)CC[C@]45C)[C@]3(C)CO)OC[C@H](O)[C@@H]2O)[C@H](O)[C@H](O)[C@H]1O (some centres undefined) | > 4 mM (inactive)
73 | NC(N)=NCCCCN=C(N)N | > 4 mM (inactive)
74 | CC1(C)C(=O)CC[C@@]2(C)C1C[C@@H](O)[C@@]1(C)C3=CC(=O)O[C@@H](c4ccoc4)[C@]3(C)CCC21 (some centres undefined) | > 4 mM (inactive)
75 | CC1(C)CC[C@]2(C)CC[C@]3(C)C(=CCC4[C@@]5(C)CC[C@H](O)C(C)(C)C5CC[C@]43C)C2C1 (some centres undefined) | > 4 mM (inactive)
76 | Cn1cc(C(=O)N/N=C/c2ccccc2)ccc1=O | > 4 mM (inactive)
77 | NCc1ccc2c(c1)OCCO2 | > 4 mM (inactive)
78 | CN1C(=O)/C(=C/c2ccccc2O)NC1=S | > 4 mM (inactive)
79 | O=C(C1CCNCC1)N1CCCCCC1 | > 4 mM (inactive)
80 | NC1=NC(=O)/C(=C\c2ccccc2)S1 | > 4 mM (inactive)
81 | O=C1C2C3C=CC(C3)C2C(=O)N1CCCO (centres undefined) | > 4 mM (inactive)
82 | Cc1cc(SCCF)n2ncnc2n1 | > 4 mM (inactive)
83 | CN1CCC(NC(=O)c2ccccc2[N+](=O)[O-])CC1 | > 4 mM (inactive)
84 | Cc1c(N=CN2CCOCC2)c(=O)n(C)c(=O)n1C | > 4 mM (inactive)
85 | NC(=O)CCN1C(=O)c2ccccc2C1=O | > 4 mM (inactive)
86 | O=C1c2ccc(F)cc2C(=O)N1CO | > 4 mM (inactive)
87 | CCCc1cc2c(c(NC(C)=O)n1)c(=O)oc1ccccc12 | > 4 mM (inactive)
88 | Oc1ccc2c(c1)OCC1(O)Cc3cc(O)c(O)cc3C21 (centres undefined) | > 4 mM (inactive)
89 | CC1CCN(C(=O)c2ccc3c(c2)OCCO3)CC1 | > 4 mM (inactive)
90 | NCc1csc(-c2ccccc2)n1 | > 4 mM (inactive)
91 | O=C(Nc1ccc2c(c1)OCO2)c1cccs1 | > 4 mM (inactive)
92 | CC1(C)C=Cc2cc3ccc(=O)oc3cc2O1 | > 4 mM (inactive)

Row | SMILES | Kd
93 | COC(=O)C[C@H]1C(C)(C)C(=O)[C@@H]2CC3=C(CC[C@]4(C)C3=CC(=O)O[C@H]4c3ccoc3)C1(C)C2=O | > 4 mM (inactive)
94 | OC1CCN(C(=S)NC2CC2)CC1 | > 4 mM (inactive)
95 | Cc1cc(C)n(-c2nc(N)cc(=O)[nH]2)n1 | > 4 mM (inactive)
96 | COc1ccc(-c2cc(=O)c3c(O)cc(O[C@H]4O[C@H](CO[C@@H]5O[C@@H](C)[C@H](O)[C@@H](O)[C@H]5O)[C@@H](O)[C@H](O)[C@H]4O)cc3o2)cc1 | > 4 mM (inactive)
97 | COc1cnn(Cc2ccccc2)c(=O)c1Cl | > 4 mM (inactive)
98 | COC(=O)Cn1c2ccccc2c2nc(C)sc21 | > 4 mM (inactive)
99 | CN1CCN(CC(=O)Nc2ccccc2)CC1 | > 4 mM (inactive)
100 | COc1ccc2c(c1)O[C@H]1c3ccc(OC)cc3OC[C@@H]21 | > 4 mM (inactive)
101 | Cc1cc(C)cc(OC(=O)N2CCOCC2)c1 | > 4 mM (inactive)
102 | Cc1cc2c(nn1)CCc1nonc1-2 | > 4 mM (inactive)
103 | CC(C)(C)CC(=O)N1CCC(C(N)=O)CC1 | > 4 mM (inactive)
104 | COC1=CC(=O)C=C(OC)C1=O | > 4 mM (inactive)
105 | COc1cc(O)c(C(C)=O)c(OC)c1 | > 4 mM (inactive)
106 | NC(N)=Nc1nc2ccccc2o1 | > 4 mM (inactive)
107 | CS(=O)(=O)Nc1cc2c3c(c1)CCN3C(=O)CC2 | > 4 mM (inactive)
108 | COC(=O)c1cc2ccccc2cn1 | > 4 mM (inactive)
109 | C=Cc1c(C)c2cc3[nH]c(cc4nc(cc5nc(cc1[nH]2)C(C)=C5CCC(=O)O)C(CCC(=O)O)=C4C)c(C)c3C=C | > 4 mM (inactive)
110 | COCCOc1nc2ccccc2nc1C | > 4 mM (inactive)
111 | O=C(NCC1CCNCC1)c1ccccn1 | > 4 mM (inactive)
112 | NC(=O)c1cn(-c2ccccc2)nc1-c1cccnc1 | > 4 mM (inactive)
113 | CC1(C)Cc2c(C#N)c(N)n(-c3ccccc3)c(=O)c2CO1 | > 4 mM (inactive)
114 | Cc1occc1C(=O)Nc1nccs1 | > 4 mM (inactive)
